The target of this assay is T1, TNKS2 (Homo sapiens, UniProt Q9H2K2).
T1 construct: Recombinant GST-TNKS2
T1 sequence (Q9H2K2 1-1166): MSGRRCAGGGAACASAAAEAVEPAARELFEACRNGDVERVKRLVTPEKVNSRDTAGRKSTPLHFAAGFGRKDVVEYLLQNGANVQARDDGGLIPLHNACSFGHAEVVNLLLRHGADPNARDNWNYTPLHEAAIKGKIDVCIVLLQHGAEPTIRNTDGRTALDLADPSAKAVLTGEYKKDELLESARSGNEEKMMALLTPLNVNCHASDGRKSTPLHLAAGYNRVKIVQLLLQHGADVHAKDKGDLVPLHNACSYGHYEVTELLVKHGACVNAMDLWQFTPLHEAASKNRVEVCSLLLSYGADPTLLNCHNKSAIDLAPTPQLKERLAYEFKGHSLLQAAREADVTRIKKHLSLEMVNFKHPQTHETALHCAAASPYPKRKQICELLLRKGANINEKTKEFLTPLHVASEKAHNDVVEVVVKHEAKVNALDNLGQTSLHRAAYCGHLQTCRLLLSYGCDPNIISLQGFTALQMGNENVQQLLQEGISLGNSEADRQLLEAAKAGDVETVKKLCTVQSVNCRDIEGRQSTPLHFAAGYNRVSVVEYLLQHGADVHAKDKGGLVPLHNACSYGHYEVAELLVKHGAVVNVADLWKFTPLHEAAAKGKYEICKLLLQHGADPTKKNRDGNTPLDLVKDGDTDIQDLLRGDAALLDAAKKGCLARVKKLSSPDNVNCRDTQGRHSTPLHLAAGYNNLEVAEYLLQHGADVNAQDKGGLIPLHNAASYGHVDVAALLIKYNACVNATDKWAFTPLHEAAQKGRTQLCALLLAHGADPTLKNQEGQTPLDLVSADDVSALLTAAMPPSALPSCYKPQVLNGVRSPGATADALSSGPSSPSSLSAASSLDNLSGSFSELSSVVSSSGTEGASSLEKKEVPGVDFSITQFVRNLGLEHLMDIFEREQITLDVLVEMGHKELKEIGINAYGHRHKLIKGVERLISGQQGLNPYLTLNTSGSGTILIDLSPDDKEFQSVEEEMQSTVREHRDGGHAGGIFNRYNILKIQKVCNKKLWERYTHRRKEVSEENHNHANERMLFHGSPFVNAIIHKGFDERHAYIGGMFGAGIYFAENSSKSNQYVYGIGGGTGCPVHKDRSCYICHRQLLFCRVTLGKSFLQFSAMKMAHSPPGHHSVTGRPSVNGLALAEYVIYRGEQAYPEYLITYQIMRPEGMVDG
Briefly: in vitro auto-ADP-ribosylation assay with recombinant GST-TNKS2, biotinylated substrate, chemiluminescent detection. In kind it is biochemical.

Regarding `COc1ccc(-n2c(SCCCN3C(=O)c4cccc5cccc(c45)C3=O)nnc2-c2ccncc2)cc1` [WIKI4], the half-inhibitory concentration (IC50) – broadly, the concentration at which inhibition is half-maximal – is around 15 nM.

These data come from publication PMC3515623, “WIKI4, a Novel Inhibitor of Tankyrase and Wnt/ß-Catenin Signaling” (PLoS ONE, 2012).
